This note sets out measurements from ChEMBL document CHEMBL1139959, “Optimization of triaryl bis-sulfones as cannabinoid-2 receptor ligands” (Bioorg Med Chem Lett, 2007).

In this test the target is Cannabinoid receptor 2 (Homo sapiens) (UniProt P34972). As to the kind of experiment: Binding affinity to CB2 receptor.
Chain of Cannabinoid receptor 2 (Homo sapiens) (P34972 whole entry, looked up): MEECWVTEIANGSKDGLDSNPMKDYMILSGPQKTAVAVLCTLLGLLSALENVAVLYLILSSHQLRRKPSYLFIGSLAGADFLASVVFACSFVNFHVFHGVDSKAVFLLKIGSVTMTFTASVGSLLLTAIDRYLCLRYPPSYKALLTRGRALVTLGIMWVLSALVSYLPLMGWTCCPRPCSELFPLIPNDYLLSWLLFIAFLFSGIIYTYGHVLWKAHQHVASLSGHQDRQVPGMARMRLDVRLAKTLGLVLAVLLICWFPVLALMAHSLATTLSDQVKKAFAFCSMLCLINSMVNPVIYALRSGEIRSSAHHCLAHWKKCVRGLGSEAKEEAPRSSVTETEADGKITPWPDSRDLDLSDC
Take `C[C@H](NS(C)(=O)=O)c1ccc(S(=O)(=O)c2ccc(Cl)cc2S(=O)(=O)c2cccc3cccnc23)cc1`: the affinity, expressed as Ki, was 204 nM. That is a sub-micromolar value.
For `C[C@H](NCC(F)(F)F)c1ccc(S(=O)(=O)c2ccc(Cl)cc2S(=O)(=O)c2ccccc2F)cc1`, the Ki amounted to 7 nM.
In turn, `C[C@H](NS(C)(=O)=O)c1ccc(S(=O)(=O)c2ccc(Cl)cc2S(=O)(=O)c2ccccc2F)cc1` came in with a Ki of 1.3 nM.
As for `C[C@H](NS(=O)(=O)C(F)(F)F)c1ccc(S(=O)(=O)c2ccc(N3CCNCC3)cc2S(=O)(=O)c2ccccc2F)cc1`, the Ki stood at 1100 nM.
In the case of `CCCS(=O)(=O)c1cc(Cl)ccc1S(=O)(=O)c1ccc([C@H](C)NS(C)(=O)=O)cc1` it was 308 nM; in that of `CNS(=O)(=O)c1cc(Cl)ccc1S(=O)(=O)c1ccc([C@H](C)NS(C)(=O)=O)cc1`, 1250 nM.
To `C[C@H](NS(C)(=O)=O)c1ccc(S(=O)(=O)c2ccc(Cl)cc2S(=O)(=O)N(C)C)cc1` belongs 1270 nM.
In the case of `C[C@H](NC(=O)C(F)(F)F)c1ccc(S(=O)(=O)c2ccc(Cl)cc2S(=O)(=O)c2ccccc2F)cc1` it was 3.7 nM; in that of `C[C@H](NS(=O)(=O)C(F)(F)F)c1ccc(S(=O)(=O)c2ccc(C(F)(F)F)cc2S(=O)(=O)c2ccccc2F)cc1`, 2.5 nM; in that of `C[C@H](NS(C)(=O)=O)c1ccc(S(=O)(=O)c2ccc(Cl)cc2S(=O)(=O)c2ccccn2)cc1`, 2.9 nM.
In turn, `C[C@H](NS(=O)(=O)C(F)(F)F)c1ccc(S(=O)(=O)c2ccc(Cl)cc2S(=O)(=O)c2c(N)cccc2F)cc1` displayed a Ki of 4.1 nM. This Ki and that of the compound before are within 1.5-fold of each other.
To `C[C@H](NS(=O)(=O)C(F)(F)F)c1ccc(S(=O)(=O)c2ccc(OC(F)(F)F)cc2S(=O)(=O)c2ccccc2F)cc1` belongs 5 nM.
To `C[C@H](N)c1ccc(S(=O)(=O)c2ccc(Cl)cc2S(=O)(=O)c2ccccc2F)cc1` belongs 3950 nM; to `C[C@H](NCCC(F)(F)F)c1ccc(S(=O)(=O)c2ccc(Cl)cc2S(=O)(=O)c2ccccc2F)cc1`, 17 nM; to `C[C@H](NS(=O)(=O)C(F)(F)F)c1ccc(S(=O)(=O)c2ccc(O)cc2S(=O)(=O)c2ccccc2F)cc1`, 1.3 nM.
To `C[C@H](NS(C)(=O)=O)c1ccc(S(=O)(=O)c2ccc(Cl)cc2S(=O)(=O)c2cccc[n+]2[O-])cc1` belongs 119 nM.
With `C[C@H](NS(=O)(=O)C(F)(F)F)c1ccc(S(=O)(=O)c2ccc(Cl)cc2S(=O)(=O)c2c(F)cccc2N2CCOCC2)cc1`, the Ki was found to be 140 nM.
In the case of `C[C@H](NS(=O)(=O)C(F)(F)F)c1ccc(S(=O)(=O)c2ccc(N)cc2S(=O)(=O)c2ccccc2F)cc1` it was 10 nM; in that of `CNc1cccc(F)c1S(=O)(=O)c1cc(Cl)ccc1S(=O)(=O)c1ccc([C@H](C)NS(=O)(=O)C(F)(F)F)cc1`, 22 nM.
In the case of `C[C@H](NS(=O)(=O)C(F)(F)F)c1ccc(S(=O)(=O)c2ccccc2S(=O)(=O)c2ccccc2F)cc1` it was 25 nM.

What is called Ki is a measure of affinity in units of concentration, obtained from inhibition or displacement. Read a high Ki as lower affinity.
